Paper PMC5325082 (Molecular Pharmacology, 2017)

Assays:
[1] = molecular target: T1, rat W55T double-mutant α9α10 receptors (Rattus norvegicus, UniProt P43144+Q9JLB5, W81T/W82T); experiment: ACh-evoked currents, two-electrode voltage clamp in Xenopus laevis oocytes; format: cell-based; conditions: 1 or 30 mM ACh, n = 15
T1 construct: expressed in transfected cells; host or cells: Xenopus laevis oocytes (cRNA injection)
From the text: (§1) cDNAs encoding Gallus gallus (chick) or Rattus norvegicus (rat) α9 and α10 nAChR subunits were subcloned into a modified pGEMHE vector for expression studies in Xenopus laevis oocytes. Capped cRNAs were in vitro transcribed from linearized plasmid DNA templates using RiboMAX Large Scale RNA Production System (Promega, Madison, WI). Mutant subunits were produced using Quick Change XL II kit (Stratagene, La Jolla, CA). Amino acid sequences of rat and chicken α9, α10, and Torpedo α1 subunits were aligned using ClustalW (EMBL-EBI, Wellcome Genome Campus, Hinxton, Cambridgeshire). Residues were numbered according to the corresponding Torpedo α1 subunit mature protein ([Karlin, 2002]).
(§2) The maintenance of Xenopus laevis and the preparation and cRNA injection of stage V and VI oocytes have been described in detail elsewhere ([Verbitsky et al., 2000]). Typically, oocytes were injected with 50 nl of RNase-free water containing 0.01–1.0 ng of cRNA (at a 1:1 molar ratio when pairwise combined) and maintained in Barth’s solution at 18°C. Electrophysiological recordings were performed 2–6 days after cRNA injection under two-electrode voltage clamp with an Oocyte Clamp OC-725B or C amplifier (Warner Instruments Corp., Hamden, CT). Recordings were filtered at a corner frequency of 10 Hz using a 900BT Tunable Active Filter (Frequency Devices Inc., Ottawa, IL). Data acquisition was performed using a Patch Panel PP-50 LAB/1 interface (Warner Instruments Corp.) at a rate of 10 points per second. Both voltage and current electrodes were filled with 3 M KCl and had resistances of ∼1 MΩ. Data were analyzed using Clampfit from the pClamp 6.1 software (Molecular Devices, Sunnyvale, CA). During electrophysiological recordings, oocytes were continuously superfused (∼15 ml/min) with normal frog saline composed of: 115 mM NaCl, 2.5 mM KCl, 1.8 mM CaCl2, and 10 mM HEPES buffer, pH 7.2. ACh was added to the perfusion solution for application. Unless otherwise indicated, the membrane potential was clamped to −70 mV. To minimize activation of the endogenous Ca^2+ sensitive chloride current ([Elgoyhen et al., 2001]), all experiments were performed in oocytes incubated with the Ca^2+ chelator 1,2-bis(2-aminophenoxy)ethane-N,N,N′,N′-tetraacetic acid (acetoxymethyl ester) (100 µM) for 3 hours before electrophysiological recordings.
(§3) Concentration-response curves were normalized to the maximal agonist response in each oocyte. The mean and S.E.M. values of the responses are represented. Agonist concentration-response curves were iteratively fitted, using Prism 5 software (GraphPad Software Inc., La Jolla, CA), with the equation: I/Imax = A^nH/(A^nH + EC50^nH), where I is the peak inward current evoked by the agonist at concentration A; Imax is the current evoked by the concentration of the agonist eliciting a maximal response; EC50 is the concentration of the agonist inducing a half-maximal current response; and nH is the Hill coefficient. Data were analyzed using Clampfit from the pClamp 6.1 software.

[2] = molecular target: T2, chicken W55T double-mutant α9α10 receptors (Gallus gallus, UniProt Q9I8C7+Q9PTS8, W83T/W84T); experiment: as above; format: cell-based; conditions: 1 or 30 mM ACh, n = 10
T2 construct: expressed in transfected cells; host or cells: Xenopus laevis oocytes (cRNA injection)
From the text: as §1, §2, §3

CC(=O)OCC[N+](C)(C)C [ACh, acetylcholine]
Currents evoked by ACh [1]: failed to evoke currents | Currents evoked by ACh [2]: failed to evoke currents
